Literature values in patent US6486182B1, “Mutual prodrugs of amlodipine and atorvastatin” (Pfizer Inc, priority 1999, dated 2002).

Experiments:
[1] = test system: calcium channel; settings: see PCT/EP94/02697
[2] = test system: smooth muscle cell migration; settings: see PCT/EP95/00847

CCOC(=O)C1=C(COCCN)NC(C)=C(C(=O)OC)C1c1ccccc1Cl (single isomer, unassigned) [R(+) isomer, Amlodipine]
calcium channel blocking activity [1]: little or no calcium channel blocking activity | inhibition of smooth muscle cell migration [2]: potent inhibitor
